From PubChem BioAssay AID248 (DTP/NCI, 2004)
“And” between values parts separate entries of the source, which are not always exact repeats. Identical values can stand only once. Toxic doses and inconclusive results are not listed.

Test system: L1210 leukemia ip in BDF1 mice, survival T/C
Assay: NCI In Vivo Anticancer Drug Screen. Data for tumor model L1210 Leukemia (intraperitoneal) in B6D2F1 (BDF1) mice
Conditions: endpoint: mean survival time, higher = longer survival
In short: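 Tumor was transplanted into mice, which were then dosed with test compound or vehicle alone. Survival was recorded for each group, and the treated figure was expressed relative to the control figure.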

[1] = dose: 100.0 mg/kg/injection, schedule: Q01DX001 (ip), vehicle: saline
[2] = dose: 200.0 mg/kg/injection, schedule: Q01DX001 (ip), vehicle: saline
[3] = dose: 400.0 mg/kg/injection, schedule: Q01DX001 (ip), vehicle: saline
[4] = dose: 50.0 mg/kg/injection, schedule: Q01DX001 (ip), vehicle: saline
[5] = dose: 100.0 mg/kg/injection, schedule: Q01DX009 (ip), vehicle: saline with Tween-80
[6] = dose: 200.0 mg/kg/injection, schedule: Q01DX009 (ip), vehicle: saline with Tween-80
[7] = dose: 400.0 mg/kg/injection, schedule: Q01DX009 (ip), vehicle: saline with Tween-80
[8] = dose: 100.0 mg/kg/injection, schedule: Q01DX009 (ip), vehicle: Klucel (hydroxypropylcellulose) (HPC)
[9] = dose: 200.0 mg/kg/injection, schedule: Q01DX009 (ip), vehicle: Klucel (hydroxypropylcellulose) (HPC)
[10] = dose: 400.0 mg/kg/injection, schedule: Q01DX009 (ip), vehicle: Klucel (hydroxypropylcellulose) (HPC)
[11] = dose: 25.0 mg/kg/injection, schedule: Q04DX003 (ip), vehicle: saline with Tween-80
[12] = dose: 100.0 mg/kg/injection, schedule: Q04DX003 (ip), vehicle: saline with Tween-80
[13] = dose: 200.0 mg/kg/injection, schedule: Q04DX003 (ip), vehicle: saline with Tween-80

CCCCCCCN(CCCCCCC)CCC(=O)c1ccc2cc(Br)c3ccccc3c2c1
T/C (dose: 55.0 mg/kg/injection, schedule: Q01DX Z (ip), vehicle: methylcellulose (MC)): 97 % of control | T/C (dose: 83.0 mg/kg/injection, schedule: Q01DX Z (ip), vehicle: methylcellulose (MC)): 86 % of control | T/C (dose: 125.0 mg/kg/injection, schedule: Q01DX Z (ip), vehicle: methylcellulose (MC)): 97 % of control

C=C(C)[C@@H]1CC[C@@H](C)C[C@H]1O
T/C [1]: 103 % of control | T/C [2]: 100 % of control | T/C [3]: 105 % of control

CC(C)COC(=O)C1(C)OC1c1ccccc1 (stereo not given)
T/C (dose: 100.0 mg/kg/injection, schedule: Q04DX002 (ip), vehicle: saline): 115 % of control | T/C (dose: 200.0 mg/kg/injection, schedule: Q04DX002 (ip), vehicle: saline): 104 % of control | T/C (dose: 400.0 mg/kg/injection, schedule: Q04DX002 (ip), vehicle: saline): 97 % of control

O=C(Nc1ccc(NC2=NCCN2)cc1)c1cccc(C(=O)Nc2ccc(NC3=NCCN3)cc2)c1
T/C (dose: 3.75 mg/kg/injection, schedule: Q01DX Z (ip), vehicle: methylcellulose (MC)): 100 % of control | T/C (dose: 7.5 mg/kg/injection, schedule: Q01DX Z (ip), vehicle: methylcellulose (MC)): 104 % of control | T/C (dose: 15.0 mg/kg/injection, schedule: Q01DX Z (ip), vehicle: methylcellulose (MC)): 116 % of control | T/C (dose: 30.0 mg/kg/injection, schedule: Q01DX Z (ip), vehicle: methylcellulose (MC)): 161 % of control

COC(=O)C(N)Cc1ccc(OC)c(N(CCCl)CCCl)c1 (stereo not given)
T/C (dose: 0.01 mg/kg/injection, schedule: Q01DX009 (ip), vehicle: saline): 106 % of control | T/C (dose: 0.02 mg/kg/injection, schedule: Q01DX009 (ip), vehicle: saline): 116 % of control | T/C (dose: 0.05 mg/kg/injection, schedule: Q01DX009 (ip), vehicle: saline): 110 % of control | T/C (dose: 0.1 mg/kg/injection, schedule: Q01DX009 (ip), vehicle: saline): 121 % of control | T/C (dose: 0.3 mg/kg/injection, schedule: Q01DX009 (ip), vehicle: saline): 155 % of control | T/C (dose: 0.62 mg/kg/injection, schedule: Q01DX001 (ip), vehicle: saline): 106 % of control | T/C (dose: 1.25 mg/kg/injection, schedule: Q01DX001 (ip), vehicle: saline): 98 % of control | T/C (dose: 1.5 mg/kg/injection, schedule: Q01DX001 (ip), vehicle: carboxymethylcellulose (CMC)): 115 % of control | T/C (dose: 1.5 mg/kg/injection, schedule: Q01DX009 (ip), vehicle: saline): 151 % of control | T/C (dose: 2.5 mg/kg/injection, schedule: Q01DX001 (ip), vehicle: saline): 106 % of control and 122 % of control | T/C (dose: 2.9 mg/kg/injection, schedule: Q01DX001 (ip), vehicle: saline): 105 % of control | T/C (dose: 2.9 mg/kg/injection, schedule: Q01DX009 (ip), vehicle: saline): 230 % of control | T/C (dose: 3.0 mg/kg/injection, schedule: Q01DX001 (ip), vehicle: carboxymethylcellulose (CMC)): 120 % of control | T/C (dose: 3.0 mg/kg/injection, schedule: Q01DX009 (ip), vehicle: saline): 123 % of control | T/C (dose: 4.4 mg/kg/injection, schedule: Q01DX001 (ip), vehicle: saline): 104 % of control | T/C (dose: 4.4 mg/kg/injection, schedule: Q01DX009 (ip), vehicle: saline): 108 % of control | T/C (dose: 5.0 mg/kg/injection, schedule: Q01DX001 (ip), vehicle: saline): 111 % of control and 124 % of control | T/C (dose: 6.0 mg/kg/injection, schedule: Q01DX001 (ip), vehicle: carboxymethylcellulose (CMC)): 108 % of control | T/C (dose: 6.6 mg/kg/injection, schedule: Q01DX001 (ip), vehicle: saline): 109 % of control | T/C (dose: 10.0 mg/kg/injection, schedule: Q01DX001 (ip), vehicle: saline): 107 % of control

COc1cccc(CCN)c1
T/C [4]: 116 % of control | T/C [1]: 110 % of control | T/C [2]: 118 % of control

NC(Cc1ccc(Cl)cc1)C(=O)O (stereo not given)
T/C (dose: 50.0 mg/kg/injection, schedule: Q01DX001 (ip), vehicle: water): 95 % of control | T/C (dose: 100.0 mg/kg/injection, schedule: Q01DX001 (ip), vehicle: water): 98 % of control | T/C (dose: 200.0 mg/kg/injection, schedule: Q01DX001 (ip), vehicle: water): 93 % of control | T/C (dose: 400.0 mg/kg/injection, schedule: Q01DX001 (ip), vehicle: water): 93 % of control | T/C (dose: 800.0 mg/kg/injection, schedule: Q01DX001 (ip), vehicle: water): 90 % of control | T/C (dose: 1200.0 mg/kg/injection, schedule: Q01DX001 (ip), vehicle: water): 96 % of control | T/C (dose: 1600.0 mg/kg/injection, schedule: Q01DX001 (ip), vehicle: water): 96 % of control | T/C (dose: 2000.0 mg/kg/injection, schedule: Q01DX001 (ip), vehicle: water): 93 % of control

O=[N+]([O-])c1ccc(F)cc1F
T/C (dose: 22.0 mg/kg/injection, schedule: Q01DX009 (ip), vehicle: Klucel (hydroxypropylcellulose) (HPC)): 103 % of control | T/C (dose: 43.7 mg/kg/injection, schedule: Q01DX009 (ip), vehicle: Klucel (hydroxypropylcellulose) (HPC)): 105 % of control | T/C (dose: 87.5 mg/kg/injection, schedule: Q01DX009 (ip), vehicle: Klucel (hydroxypropylcellulose) (HPC)): 97 % of control and 114 % of control

CN1CCC(O)(c2ccccc2)C(C(=O)c2ccccc2)C1 (stereo not given)
T/C [1]: 101 % of control | T/C [2]: 93 % of control

COc1ccc(NC(=S)N(C)C)cc1
T/C [5]: 98 % of control | T/C [6]: 110 % of control | T/C [7]: 98 % of control

O=C(N/N=C/c1cccnc1)c1ccc(O)cc1
T/C [8]: 91 % of control | T/C [9]: 96 % of control | T/C [10]: 94 % of control

c1ccc(-c2ccccn2)nc1
T/C (dose: 100.0 mg/kg/injection, schedule: Q04DX002 (ip), vehicle: saline with Tween-80): 107 % of control | T/C (dose: 200.0 mg/kg/injection, schedule: Q04DX002 (ip), vehicle: saline with Tween-80): 101 % of control | T/C (dose: 400.0 mg/kg/injection, schedule: Q04DX002 (ip), vehicle: saline with Tween-80): 114 % of control

CC1(C)N=C(N)N=C(N)N1c1ccc(OCCCc2ccccc2)c(N)c1
T/C [11]: 100 % of control | T/C (dose: 50.0 mg/kg/injection, schedule: Q04DX003 (ip), vehicle: saline with Tween-80): 96 % of control

CCCOC(C[N+](=O)[O-])C(Cl)(Cl)Cl (stereo not given)
T/C (dose: 6.25 mg/kg/injection, schedule: Q01DX009 (ip), vehicle: saline with Tween-80): 91 % of control | T/C (dose: 12.5 mg/kg/injection, schedule: Q01DX009 (ip), vehicle: saline with Tween-80): 96 % of control | T/C (dose: 25.0 mg/kg/injection, schedule: Q01DX009 (ip), vehicle: saline with Tween-80): 101 % of control | T/C [11]: 104 % of control

CSc1sc2ccc(S(=O)(=O)O)cc2[n+]1C
T/C [12]: 97 % of control | T/C [13]: 94 % of control

O=C(Cc1cc2c(cc1[N+](=O)[O-])OCO2)c1c[nH]c2ccc(Br)cc12
T/C [4]: 98 % of control | T/C [1]: 92 % of control | T/C [2]: 98 % of control | T/C [3]: 95 % of control

Cc1ccc([P+](Cc2ccccc2)(c2ccc(C)cc2)c2ccc(C)cc2)cc1
T/C (dose: 75.0 mg/kg/injection, schedule: Q01DX001 (ip), vehicle: saline): 97 % of control | T/C (dose: 150.0 mg/kg/injection, schedule: Q01DX001 (ip), vehicle: saline): 97 % of control

c1ccc(C(=C(c2ccccc2)c2ccccc2)c2ccccc2)cc1
T/C [8]: 99 % of control | T/C (dose: 100.0 mg/kg/injection, schedule: Q04DX003 (ip), vehicle: Klucel (hydroxypropylcellulose) (HPC)): 97 % of control | T/C [9]: 94 % of control | T/C (dose: 200.0 mg/kg/injection, schedule: Q04DX003 (ip), vehicle: Klucel (hydroxypropylcellulose) (HPC)): 97 % of control | T/C [10]: 92 % of control | T/C (dose: 400.0 mg/kg/injection, schedule: Q04DX003 (ip), vehicle: Klucel (hydroxypropylcellulose) (HPC)): 96 % of control

Cc1ccc(C)c(NS(=O)(=O)c2ccc(Cl)c([N+](=O)[O-])c2)c1
T/C [8]: 110 % of control | T/C [9]: 105 % of control | T/C [10]: 107 % of control

Cc1ccc(S(=N)(=O)C2CC2)cc1 (stereo not given)
T/C [1]: 95 % of control | T/C [2]: 93 % of control | T/C [3]: 103 % of control

Cc1ccc(C)c(CCO)c1
T/C [5]: 100 % of control | T/C [12]: 97 % of control | T/C [6]: 95 % of control | T/C [13]: 108 % of control | T/C [7]: 91 % of control

OC(OCCCCCCOC(O)C(Cl)(Cl)Cl)C(Cl)(Cl)Cl (stereo not given)
T/C [5]: 93 % of control | T/C [12]: 98 % of control | T/C [6]: 98 % of control | T/C [13]: 104 % of control | T/C [7]: 106 % of control | T/C (dose: 400.0 mg/kg/injection, schedule: Q04DX003 (ip), vehicle: saline with Tween-80): 98 % of control
